Test results as given in patent US4401604A, “Process for preparing thiosulfenamide derivatives of N-phosphonomethylglycine triesters” (Monsanto Company, priority 1981, dated 1983).

Columns and labels:
Assay type in all cases: in vivo
[1] = tested on: Yellow Nutsedge; assay: Post-emergence herbicidal activity, greenhouse; settings: Table I, 4 WAT
Text: (§1) A good grade of top soil is placed in aluminum pans having holes in the bottom and compacted to a depth of 0.95 to 1.27 cm. from the top of the pan. A predetermined number of seeds of each of several dicotyledonous and monocotyledonous annual plant species and/or vegetative propagules for the perennial plant species are placed on the soil and pressed into the soil surface. The seeds and/or vegetative propagules are covered with soil and leveled. The pans are then placed on a sand bench in the greenhouse and watered from below as needed. After the plants reach the desired age (two to three weeks), each pan except for the control pans is removed individually to a spraying chamber and sprayed by means of an atomizer operating at a positive air pressure of approximately 1.46 kg/cm^2 absolute. The atomizer contains 6 ml. of a solution or suspension of the chemical. In that 6 ml., is an amount of a cyclohexanone emulsifying agent mixture to give a spray solution or suspension which contains about 0.4% by weight of the emulsifier. The spray solution or suspension contains a sufficient amount of the candidate chemical in order to give application rates corresponding to those set forth in the tables. The spray solution is prepared by taking an aliquot of a 1.0% by weight stock solution or suspension of the candidate chemical in an organic solvent such as acetone or tetrahydrofuran or in water. The emulsifying agent employed is a mixture comprising 35 weight percent butylamine dodecylbenzene sulfonate and 65 weight percent of a tall oil ethylene oxide condensate having about 11 moles of ethylene oxide per mole of tall oil. The pans are returned to the greenhouse and watered as before and the injury to the plants as compared to the control is observed at approximately two and four weeks as indicated in the tables under WAT and the results recorded. In some instances, the two-week observations are omitted.
(§2) The post-emergence herbicidal activity index used in Table I is as follows:
(§3) The plant species utilized in these tests are identified by letter in accordance with the following legend: […]

[2] = tested on: Barnyardgrass; assay: Post-emergence herbicidal activity, greenhouse; settings: Table I, 4 WAT
Text: as §1, §2, §3

[3] = tested on: Johnsongrass; assay: Post-emergence herbicidal activity, greenhouse; settings: Table I, 4 WAT
Text: as §1, §2, §3

[4] = tested on: Downy Brome; assay: Post-emergence herbicidal activity, greenhouse; settings: Table I, 4 WAT
Text: as §1, §2, §3

[5] = tested on: Smartweed; assay: Post-emergence herbicidal activity, greenhouse; settings: Table I, 4 WAT
Text: as §1, §2, §3

[6] = tested on: Velvetleaf; assay: Post-emergence herbicidal activity, greenhouse; settings: Table I, 4 WAT
Text: as §1, §2, §3

[7] = tested on: Cocklebur; assay: Post-emergence herbicidal activity, greenhouse; settings: Table I, 4 WAT
Text: as §1, §2, §3

[8] = tested on: Quackgrass; assay: Post-emergence herbicidal activity, greenhouse; settings: Table I, 4 WAT
Text: as §1, §2, §3

[9] = tested on: Lambsquarters; assay: Post-emergence herbicidal activity, greenhouse; settings: Table I, 4 WAT
Text: as §1, §2, §3

[10] = tested on: Morningglory; assay: Post-emergence herbicidal activity, greenhouse; settings: Table I, 4 WAT
Text: as §1, §2, §3

[11] = tested on: Canada Thistle; assay: Post-emergence herbicidal activity, greenhouse; settings: Table I, 4 WAT
Text: as §1, §2, §3

[12] = tested on: Yellow Nutsedge; assay: Pre-emergent herbicidal activity; settings: Table III; 11.2 kg/h; 2 WAT
Text: (§4) A good grade of top soil is placed in aluminum pans and compacted to a depth of 0.95 to 1.27 cm. from the top of each pan. A predetermined number of seeds or vegetative propagules of each of several plant species are placed on top of the soil in each pan and then pressed down. Herbicidal compositions prepared as in the previous example are applied by admixture with or incorporation in the top layer of soil.
(§5) In this method, the soil required to cover the seeds and propagules is weighed and admixed with a herbicidal composition containing a known amount of the active ingredient (compound of this invention). The pans are then filled with the admixture and leveled. Watering is carried out by permitting the soil in the pans to absorb moisture through apertures in the pan bottoms. The seed and propagule containing pans are placed on a wet sand bench and maintained for approximately two weeks under ordinary conditions of sunlight and watering. At the end of this period, the number of emerged plants of each species is noted and compared to an untreated control.
(§6) The pre-emergent herbicidal activity index used below is based upon average percent control of each species as follows:
(§7) Plant species in the table are identified by the same code letters used in the previous example.

[13] = tested on: Barnyardgrass; assay: Pre-emergent herbicidal activity; settings: Table III; 11.2 kg/h; 2 WAT
Text: as §4, §5, §6, §7

[14] = tested on: Johnsongrass; assay: Pre-emergent herbicidal activity; settings: Table III; 11.2 kg/h; 2 WAT
Text: as §4, §5, §6, §7

[15] = tested on: Downy Brome; assay: Pre-emergent herbicidal activity; settings: Table III; 11.2 kg/h; 2 WAT
Text: as §4, §5, §6, §7

[16] = tested on: Smartweed; assay: Pre-emergent herbicidal activity; settings: Table III; 11.2 kg/h; 2 WAT
Text: as §4, §5, §6, §7

[17] = tested on: Velvetleaf; assay: Pre-emergent herbicidal activity; settings: Table III; 11.2 kg/h; 2 WAT
Text: as §4, §5, §6, §7

[18] = tested on: Cocklebur; assay: Pre-emergent herbicidal activity; settings: Table III; 11.2 kg/h; 2 WAT
Text: as §4, §5, §6, §7

[19] = tested on: Quackgrass; assay: Pre-emergent herbicidal activity; settings: Table III; 11.2 kg/h; 2 WAT
Text: as §4, §5, §6, §7

[20] = tested on: Lambsquarters; assay: Pre-emergent herbicidal activity; settings: Table III; 11.2 kg/h; 2 WAT
Text: as §4, §5, §6, §7

[21] = tested on: Morningglory; assay: Pre-emergent herbicidal activity; settings: Table III; 11.2 kg/h; 2 WAT
Text: as §4, §5, §6, §7

[22] = tested on: Canada Thistle; assay: Pre-emergent herbicidal activity; settings: Table III; 11.2 kg/h; 2 WAT
Text: as §4, §5, §6, §7

## O=C(CN(CP(=O)(Oc1ccccc1)Oc1ccccc1)SSC1CCCCC1)OCc1ccccc1 [III, Glycine, N-(cyclohexyldithio)-N-[(diphenoxyphosphinyl)methyl]-, phenylmethyl ester]
[1]; 5.6 kg/h
  post-emergence herbicidal activity index: 0 (0- 24% control)
[1]; 11.2 kg/h
  post-emergence herbicidal activity index: 0 (0- 24% control)
[2]; 5.6 kg/h
  post-emergence herbicidal activity index: 2 (50-74% control)
[2]; 11.2 kg/h
  post-emergence herbicidal activity index: 2 (50-74% control)
[3]; 5.6 kg/h
  post-emergence herbicidal activity index: 1 (25-49% control)
[3]; 11.2 kg/h
  post-emergence herbicidal activity index: 1 (25-49% control)
[4]; 5.6 kg/h
  post-emergence herbicidal activity index: 1 (25-49% control)
[4]; 11.2 kg/h
  post-emergence herbicidal activity index: 1 (25-49% control)
[5]; 5.6 kg/h
  post-emergence herbicidal activity index: 2 (50-74% control)
[5]; 11.2 kg/h
  post-emergence herbicidal activity index: 1 (25-49% control)
[6]; 5.6 kg/h
  post-emergence herbicidal activity index: 0 (0- 24% control)
[6]; 11.2 kg/h
  post-emergence herbicidal activity index: 1 (25-49% control)
[7]; 5.6 kg/h
  post-emergence herbicidal activity index: 1 (25-49% control)
[7]; 11.2 kg/h
  post-emergence herbicidal activity index: 2 (50-74% control)
[8]; 5.6 kg/h
  post-emergence herbicidal activity index: 1 (25-49% control)
[8]; 11.2 kg/h
  post-emergence herbicidal activity index: 2 (50-74% control)
[9]; 5.6 kg/h
  post-emergence herbicidal activity index: 2 (50-74% control)
[9]; 11.2 kg/h
  post-emergence herbicidal activity index: 2 (50-74% control)
[10]; 5.6 kg/h
  post-emergence herbicidal activity index: 1 (25-49% control)
[10]; 11.2 kg/h
  post-emergence herbicidal activity index: 2 (50-74% control)
[11]; 5.6 kg/h
  post-emergence herbicidal activity index: 1 (25-49% control)
[11]; 11.2 kg/h
  post-emergence herbicidal activity index: 0 (0- 24% control)
[12]
  pre-emergent herbicidal activity index: 0 (0-24% control)
[13]
  pre-emergent herbicidal activity index: 0 (0-24% control)
[14]
  pre-emergent herbicidal activity index: 0 (0-24% control)
[15]
  pre-emergent herbicidal activity index: 0 (0-24% control)
[16]
  pre-emergent herbicidal activity index: 0 (0-24% control)
[17]
  pre-emergent herbicidal activity index: 0 (0-24% control)
[18]
  pre-emergent herbicidal activity index: 0 (0-24% control)
[19]
  pre-emergent herbicidal activity index: 0 (0-24% control)
[20]
  pre-emergent herbicidal activity index: 0 (0-24% control)
[21]
  pre-emergent herbicidal activity index: 0 (0-24% control)
[22]
  pre-emergent herbicidal activity index: 1 (25-49% control)
